This is an account of results in ChEMBL document CHEMBL3124812, “Benzamidobenzoic acids as potent PqsD inhibitors for the treatment of Pseudomonas aeruginosa infections” (Eur J Med Chem, 2014).

The source made the active and inactive calls. No cut-off for these calls is given here.

Test [1] relates to Pseudomonas aeruginosa. The test can be described thus: Inhibition of Pseudomonas aeruginosa His-6-tagged PqsD expressed in Escherichia coli BL21 (lambdaDE3) using anthraniloyl-CoA/beta-ketodecanoic acid at 25 uM as substrate by LC-MS/MS analysis.
Test [2] relates to Pseudomonas aeruginosa. The test can be described thus: Inhibition of Pseudomonas aeruginosa His-6-tagged PqsD expressed in Escherichia coli BL21 (lambdaDE3) using anthraniloyl-CoA/beta-ketodecanoic acid at 10 uM as substrate by LC-MS/MS analysis.
Test [3] relates to Escherichia coli. The test can be described thus: Inhibition of Escherichia coli RNAP assessed as incorporation of [5,6-3H]UTP at 100 uM preincubated for 10 mins followed by DNA template and ATP, CTP, GTP, UTP, [5,6-3H]UTP addition measured after 10 mins by scintillation counting analysis.
Test [4] can be described thus: Selectivity index, ratio of IC50 for Escherichia coli RNAP to IC50 for Pseudomonas aeruginosa PqsD.
The nature of test [5]: Inhibition of Escherichia coli RNAP assessed as incorporation of [5,6-3H]UTP preincubated for 10 mins followed by DNA template and ATP, CTP, GTP, UTP, [5,6-3H]UTP addition measured after 10 mins by scintillation counting analysis. The following applies: read-out: IC50.
Test [6] is described as follows: Inhibition of Pseudomonas aeruginosa His-6-tagged PqsD expressed in Escherichia coli BL21 (lambdaDE3) using anthraniloyl-CoA/beta-ketodecanoic acid as substrate by LC-MS/MS analysis. The following applies: read-out: IC50.
For test [7], the system named is Escherichia coli. The test can be described thus: Inhibition of Escherichia coli RNAP assessed as incorporation of [5,6-3H]UTP at 50 uM preincubated for 10 mins followed by DNA template and ATP, CTP, GTP, UTP, [5,6-3H]UTP addition measured after 10 mins by scintillation counting analysis.
Test [8] deals with Pseudomonas aeruginosa. Put plainly: Inhibition of Pseudomonas aeruginosa His-6-tagged PqsD expressed in Escherichia coli BL21 (lambdaDE3) using anthraniloyl-CoA/beta-ketodecanoic acid at 50 uM as substrate by LC-MS/MS analysis.

The inhibition is the percentage by which the read-out fell short of the control. Compound `COc1ccc(C(=O)O)c(NC(=O)c2ccc(-c3ccccc3)cc2)c1` displayed an inhibition in test [1] of 43%.
Regarding `O=C(O)c1ccc(NC(=O)c2ccc(-c3ccccc3)cc2)cc1`, the inhibition result in test [2] was “inactive”. Besides, in test [3], the inhibition was 15%.
In general, IC50 refers to the midpoint of a concentration-inhibition curve. As for `O=C(Nc1cccc(O)c1C(=O)O)c1ccc(-c2ccccc2)cc1`, in test [4], the Ratio IC50 stood at 50. In addition, the IC50 in test [5] came out at 74 µM; in test [6], 1.3 µM.
Turning to `CCN(CC)S(=O)(=O)c1cccc(C(=O)Nc2ccc(Br)cc2C(=O)O)c1`, in test [7], the inhibition entry is “inactive”.
Consider `O=C(O)c1cccc(NC(=O)c2ccc(-c3ccccc3)cc2)c1`, for which the inhibition in test [1] amounted to 25%; in test [3] it was 31%.
For `CCN(CC)S(=O)(=O)c1cccc(C(=O)Nc2ccc(C(F)(F)F)cc2C(=O)O)c1`, the inhibition entry in test [7] was “inactive”.
Same read-out and setting: to `CCN(CC)S(=O)(=O)c1cccc(C(=O)Nc2ccc(-c3ccc(C(=O)O)cc3)cc2C(=O)O)c1` belongs 23%.
`O=C(Nc1sc(-c2ccccc2)cc1C(=O)O)c1ccc(-c2ccccc2)cc1`: the inhibition stood at 33% in test [7] and 28% in test [8].
